{"source": "paper PMC5689723", "about": "“Targeting aggressive prostate cancer-associated CD44v6 using phage display selected peptides” (Oncotarget, 2017)", "system": "v6A3 cells", "test": "MTT assay, v6A3 cells", "assay_type": "cell-based", "conditions": "Homo sapiens, PC-3M, 48 h, 5000 cells per well, triplicate, 562 nm, after continuous passage for one month, P< 0.05 vs PC3M, read-out: DOX IC50 of v6A3"}
{"smiles": "COc1cccc2c1C(=O)c1c(O)c3c(c(O)c1C2=O)C[C@@](O)(C(=O)CO)C[C@@H]3O[C@H]1C[C@H](N)[C@H](O)[C@H](C)O1", "note": "[DOX, doxorubicin]", "values": [{"measurement": "IC50", "value": 140, "unit": "nM"}]}
